{"source": "patent US20210322417A1", "about": "“GASTRIC CANCER TREATMENTS” (The Jackson Laboratory, priority 2018, published 2021)", "key": {"CSK null OE19 cells [1]": {"system": "CSK null OE19 cells", "test": "CellTiter-Glo cell viability assay, CSK null OE19", "type": "cell-based, human", "conditions": "6 days", "quoted_text": "(§3) Then N87 and OE19 cells were infected with the corresponding viruses and the Lapatinib resistance was examined by treating the cells with indicated doses of Lapatinib for 6 days. Cell viability assay was performed as described below at the end of treatment.\n(§4) For the cell viability assays, 4,000 cells/each well in a 96-well plate were treated with indicated drugs for 6 days and cell viabilities were measured using the CellTiter-Glo® luminescent cell viability assay kit according to the manufacturer's instructions (Promega). The luminescence intensity was measured using a multi-label plate reader (SpectraMax M5, Molecular Devices). The cell viabilities were calculated as relative values compared to the untreated controls."}, "PTEN null OE19 cells [2]": {"system": "PTEN null OE19 cells", "test": "CellTiter-Glo cell viability assay, PTEN null OE19", "type": "cell-based, human", "conditions": "6 days", "quoted_text": "as §3, §4"}, "[3]": {"system": "OE19 cells transduced with non-targeting gRNA", "test": "CellTiter-Glo cell viability assay, control OE19", "type": "cell-based, human", "conditions": "indicated doses of the agent in combination with 0.05 μM Lapatinib, 6 days", "description": "Viral particles were generated as described above."}, "N87-WT tumors": {"system": "N87-WT tumors", "test": "Xenograft tumor model, N87-WT", "type": "in vivo, mice", "conditions": "lapatinib dosing test, three weeks of treatment", "description": "Tumors were induced by injecting N87-WT. […] Drug treatment was initiated when tumors reached a volume of 150-250 mm^3. Mice were randomly divided into seven treatment groups including 8-10 mice in each group: 1) vehicle only, 2) lapatinib only, 3) lapatinib+trametinib, 4) lapatinib+copanlisib, 5) trametinib+copanlisib, 6) lapatinib+trametinib+copanlisib, and 7) 5-FU."}, "N87-CSK−/− tumors": {"system": "N87-CSK−/− tumors", "conditions": "lapatinib dosing test, three weeks of treatment; N87-CSK−/− xenograft, compared to N87-WT"}, "CSK null OE19 cells [4]": {"system": "CSK null OE19 cells", "test": "Caspase-Glo 3/7 apoptosis assay, CSK null cells", "type": "cell-based, human", "conditions": "Lapatinib 48 h treatment", "method": "(§1) We examined apoptosis induced by Lapatinib treatment in CSK or PTEN null cells as well as the control cells by measuring caspase-3/7 activation (Caspase-Glo assay).\n(§2) Caspase activity was detected by using Caspase-Glo 3/7 assay kit (Promega). Briefly. The GC cells were seeded in 96-well white luminometer assay plates at a density of 4,000 cells per well and incubated at 37° C. Cells were treated with Lapatinib for 48 h, 100 ul caspase 3/7 reagents were added to each well and incubated for 1 h on rotary shaker at room temperature. The luminescence intensity was measured using a multi-label plate reader (SpectraMax M5, Molecular Devices)."}, "N87-PTEN−/− tumors": {"system": "N87-PTEN−/− tumors", "test": "Xenograft tumor model, N87-PTEN−/−", "conditions": "lapatinib dosing test, three weeks of treatment, compared to N87-WT"}, "PTEN null OE19 cells [5]": {"system": "PTEN null OE19 cells", "test": "Caspase-Glo 3/7 apoptosis assay, PTEN null cells", "type": "cell-based, human", "conditions": "Lapatinib 48 h treatment", "method": "as §1, §2"}, "HER2-amplified GC": {"system": "HER2-amplified GC", "conditions": "HER2-positive GC patients, clinical trial data; cited from earlier work"}, "[6]": {"system": "OE19 cells transduced with non-targeting gRNA", "test": "Caspase-Glo 3/7 apoptosis assay, control cells", "type": "cell-based, human", "conditions": "Lapatinib 48 h treatment", "method": "as §1, §2"}, "[7]": {"conditions": "AZD0530 at highest concentration (1 μM) in combination with 0.05 μM Lapatinib"}, "[8]": {"conditions": "0.1 μM of the agent in combination with 0.05 μM Lapatinib"}, "[9]": {"conditions": "indicated doses of the agent in combination with 0.05 μM Lapatinib"}}}
{"smiles": "CN1CCN(CCOc2cc(OC3CCOCC3)c3c(Nc4c(Cl)ccc5c4OCO5)ncnc3c2)CC1", "note": "[AZD0530, Saracatinib]", "values": [{"measurement": "cells survived", "setting": "CSK null OE19 cells [1]; [7]", "value": "9.15±0.88", "unit": "%"}, {"measurement": "cells survived", "setting": "PTEN null OE19 cells [2]; [7]", "value": "42.49±2.54", "unit": "%"}]}
{"smiles": "COc1c(OCCCN2CCOCC2)ccc2c1N=C(NC(=O)c1cnc(N)nc1)N1CCN=C21", "note": "[Copanlisib]", "values": [{"measurement": "effect on cell growth", "setting": "CSK null OE19 cells [1]; [8]", "value": "significantly inhibited the cell growth, but not completely"}, {"measurement": "effect on cell growth/viability", "setting": "CSK null OE19 cells [1]; [9]", "value": "inhibited the cell growth"}, {"measurement": "effect on cell growth", "setting": "PTEN null OE19 cells [2]; [8]", "value": "significantly inhibited the cell growth, but not completely"}, {"measurement": "effect on cell growth/viability", "setting": "PTEN null OE19 cells [2]; [9]", "value": "inhibited the cell growth"}, {"measurement": "effect on cell growth", "setting": "[3]", "value": "inhibited the cell growth"}]}
{"smiles": "CS(=O)(=O)CCNCc1ccc(-c2ccc3ncnc(Nc4ccc(OCc5cccc(F)c5)c(Cl)c4)c3c2)o1", "note": "[Lapatinib]", "values": [{"measurement": "tumor sensitivity to treatment", "setting": "N87-WT tumors", "value": "sensitive to lapatinib treatment"}, {"measurement": "effect on cell growth", "setting": "CSK null OE19 cells [1]; 0.05 μM Lapatinib alone", "value": "could not inhibit the growth"}, {"measurement": "tumor sensitivity to treatment", "setting": "N87-CSK−/− tumors", "value": "relatively insensitive to lapatinib"}, {"measurement": "effect on cell growth", "setting": "PTEN null OE19 cells [2]; 0.05 μM Lapatinib alone", "value": "could not inhibit the growth"}, {"measurement": "fold of caspase-3/7 activity compared with vehicle treated cells", "setting": "CSK null OE19 cells [4]", "value": "1.55±0.16", "unit": "fold"}, {"measurement": "tumor sensitivity to treatment", "setting": "N87-PTEN−/− tumors", "value": "resistant to lapatinib treatment"}, {"measurement": "fold of caspase-3/7 activity compared with vehicle treated cells", "setting": "PTEN null OE19 cells [5]", "value": "1.50±0.10", "unit": "fold"}, {"measurement": "survival", "setting": "HER2-amplified GC", "value": "failed to improve survival"}, {"measurement": "fold of caspase-3/7 activity compared with vehicle treated cells", "setting": "[6]", "value": "3.79±0.16", "unit": "fold"}]}
